Results reported in patent US10624343B2, “Phenyl urea compound, and use thereof” (Sumitomo Chemical Company, Limited, priority 2016, dated 2020).

Tested on: cucumber phytophthora blight fungi (Phytophthora capsici)
Experiment: Test for controlling cucumber phytophthora blight fungi (titer plate growth test)
Assay type: cell-based
Conditions: 4.5 mg in 100 μL dimethyl sulfoxide, 1 μL portion plus 150 μL PDB medium with zoospores; 27° C., three days; absorbance at 600 nm; Efficacy=100×(X−Y)/X
Method: Test example 1: Test for controlling cucumber phytophthora blight fungi (Phytophthora capsici)
Four point five (4.5) milligrams of the present compound was diluted with 100 μL of dimethyl sulfoxide. One (1) μL portion of the diluted liquid was dispensed into a titer plate (96 wells), and thereto was then dispensed 150 μL of a potato dextrose broth medium (PDB medium) containing zoospores of cucumber phytophthora blight fungi (Phytophthora capsici). This plate was cultured at 27° C. for three days, thereby allowing the cucumber phytophthora blight fungi to undergo proliferation, and the absorbance at 600 nm of each well of the titer plate was then measured to determine a degree of growth of the cucumber phytophthora blight fungi. The efficacy was calculated from the determined degree of growth by the below-mentioned “Equation 1”. As a result, the efficacy of the Present compound was 90% or more. Efficacy=100×(X−Y)/X “Equation 1” where X: Degree of fungal growth in non-treated area Y: Degree of fungal growth in treated area
In the test example, a non-treated area means an area in which a test was conducted in the same manner, except that dimethyl sulfoxide was dispensed in place of the present compound diluted with dimethyl sulfoxide.

Row | Structure (SMILES) | efficacy
1 | CCOC(=O)COc1ncccc1Oc1cc(NC(C)=O)c(F)cc1Cl [N-[4-chloro-2-fluoro-5-{2-(ethoxycarbonyl)methoxy-3-pyridyloxy}phenyl]acetamide] | less than 50%
2 | CCOC(=O)COc1ncccc1Oc1cc(NC(N)=O)c(F)cc1Cl [Present compound] | ≥ 90%
